What all share (type): cell-based
Assay [1] concerns HIV-1 NL4-3 gp41 A21T pseudovirus. Particulars: Table 2; for IC50: A21T, TZM-bl cells, 48 h, luciferase, mean ± SD, triplicate, repeated three times. The procedure: (§1) The entry abilities of A15V, L57H, R68G, G86D, C87Y, E119G, and N140S were almost completely lost, corresponding to LP40-V6, LP40-V7, T20-V9, LP40-V3, LP40-V5, LP40-V4, and T20-V5, respectively, so it was determined that these mutation sites might be lethal mutations. […] The differences between the wild-type envelope proteins and serial mutant proteins in mediating membrane fusion were compared using a double-separated protein-based fusion experimental system. […] G20V, A21T, E119G, and Y127H had only an approximately 10% fusion capacity, and L33S, N42D, N42T, and N43S had less than 50% fusion capacity, but N140S had approximately 60% fusion capacity (Figure 6B). […] Among them, we selected the fusion ability of the sixth hour to evaluate the fusion activities of the mutant strains (Figure 6B).
(§2) Viral RNA was extracted from the supernatant, and, after reverse transcription, the cDNA was amplified using PCR. These amplified DNA were connected to the T-Easy vector and transformed to Trans 2-Blue Chemically Competent Cells. These sequences were determined via sequencing. The expression plasmids, which contained different HIV-1NL4-3 Env mutants, were constructed using DNA assembly (NEBuilder® HiFi DNA Assembly Master Mix). In brief, two primers were used to amplify Env, and the other two primers were used to amplify the vector fragment. The products of PCR were purified with a 20–25 bp overlap in the terminal of Env and the vector fragment Env and the vector fragment were added to the DNA assembly master mix at […] for 15 min and then transformed to Trans 2-Blue Chemically Competent Cells. Additionally, a single-point mutation was generated using double-stranded DNA templates and a selection of mutants with a restriction enzyme (DpnI) as described previously. The successful mutations were confirmed via sequencing.
(§3) The infectivity of HIV Env mutants and the inhibitory activities of membrane fusion inhibitors on mutants in TZM-bl cells were measured using a single-cycle infection assay as described previously. Briefly, the HIV pseudovirus was packed using an Env-coding plasmid, and pSG3ΔEnv was co-transfected into HEK293T cells. pSG3ΔEnv encodes an Env-defective, luciferase-expressing HIV-1 genome. After the pseudoviruses were harvested and filtrated, the amount of pseudoviruses was fixed via P24 antigen, and their infectivity was determined in TZM-bl cells. In order to measure the inhibitory activities of the inhibitors, inhibitors diluted serially 3-fold were mixed with an equal volume of pseudoviruses, and then 100 µL 1 × 10^5/mL TZM-bl cells were added to the mixture and incubated at 37 °C with 5% CO2 for 48 h. After that, TZM-bl cells were lysed using reporter lysis buffer, and IC50 values were calculated according to luciferase activity measured by luciferase assay reagents and a luminescence counter (Promega, Madison, WI, USA).

Assay [2] deals with HIV-1 NL4-3 gp41 A50V pseudovirus. The note with it: Table 2; for IC50: A50V, TZM-bl cells, 48 h, luciferase, mean ± SD, triplicate, repeated three times. The procedure: as §1, §2, §3
The test system of assay [3] is HIV-1 NL4-3 gp41 A71V pseudovirus. Particulars: Table 2; for IC50: A71V, TZM-bl cells, 48 h, luciferase, mean ± SD, triplicate, repeated three times. The procedure:
as §1, §2, §3

The test system of assay [4] is HIV-1 NL4-3 gp41 D36G pseudovirus. The note with it: Table 2; for IC50: D36G, TZM-bl cells, 48 h, luciferase, mean ± SD, triplicate, repeated three times. The procedure: as §1, §2, §3
Assay [5] relates to HIV-1 NL4-3 gp41 E137K pseudovirus. The note with it: Table 2; for IC50: E137K, TZM-bl cells, 48 h, luciferase, mean ± SD, triplicate, repeated three times. The procedure: as §1, §2, §3
The test system of assay [6] is HIV-1 NL4-3 gp41 G20V pseudovirus. Particulars: Table 2; for IC50: G20V, TZM-bl cells, 48 h, luciferase, mean ± SD, triplicate, repeated three times. The procedure: as §1, §2, §3
Assay [7] deals with HIV-1 NL4-3 gp41 N126K pseudovirus. Particulars: Table 2; for IC50: N126K, TZM-bl cells, 48 h, luciferase, mean ± SD, triplicate, repeated three times. The procedure:
as §1, §2, §3

Assay [8] concerns HIV-1 NL4-3 gp41 N42D pseudovirus. Particulars: Table 2; for IC50: N42D, TZM-bl cells, 48 h, luciferase, mean ± SD, triplicate, repeated three times. The procedure: as §1, §2, §3
In assay [9] the test system is HIV-1 NL4-3 gp41 N42T pseudovirus. The note with it: Table 2; for IC50: N42T, TZM-bl cells, 48 h, luciferase, mean ± SD, triplicate, repeated three times. The procedure:
as §1, §2, §3

Assay [10] deals with HIV-1 NL4-3 gp41 N43S pseudovirus. The note with it: Table 2; for IC50: N43S, TZM-bl cells, 48 h, luciferase, mean ± SD, triplicate, repeated three times. The procedure:
as §1, §2, §3

In assay [11] the test system is HIV-1 NL4-3 gp41 S129N pseudovirus. Particulars: Table 2; for IC50: S129N, TZM-bl cells, 48 h, luciferase, mean ± SD, triplicate, repeated three times. The procedure: as §1, §2, §3
In assay [12] the test system is HIV-1 NL4-3 gp41 S35P pseudovirus. Particulars: Table 2; for IC50: S35P, TZM-bl cells, 48 h, luciferase, mean ± SD, triplicate, repeated three times. The procedure:
as §1, §2, §3

Assay [13] deals with HIV-1 NL4-3 gp41 V38A pseudovirus. Particulars: Table 2; for IC50: V38A, TZM-bl cells, 48 h, luciferase, mean ± SD, triplicate, repeated three times. The procedure: as §1, §2, §3
Assay [14] relates to HIV-1 NL4-3 gp41 V38T pseudovirus. Particulars: Table 2; for IC50: V38T, TZM-bl cells, 48 h, luciferase, mean ± SD, triplicate, repeated three times. The procedure: as §1, §2, §3
Assay [15] relates to HIV-1 NL4-3 gp41 Y127H pseudovirus. Particulars: Table 2; for IC50: Y127H, TZM-bl cells, 48 h, luciferase, mean ± SD, triplicate, repeated three times. The procedure: as §1, §2, §3

Where “and” joins values, the source holds several entries; their conditions need not be identical. Equal entries are not always repeated. Where a SMILES comes first, the peptide text is derived from it. The star is where a group is joined. Palmitoyl = CCCCCCCCCCCCCCCC(=O)*

What is called IC50 is the midpoint of a concentration-inhibition curve. Read a low IC50 as higher potency. With `CCCCCCCCCCCCCCCC(=O)NCCCC[C@H](NC(=O)[C@H](CC(=O)O)NC(=O)[C@H](CC(C)C)NC(=O)[C@H](CCC(=O)O)NC(=O)[C@H](CC(C)C)NC(=O)[C@H](CC(C)C)NC(=O)[C@H](CCC(=O)O)NC(=O)[C@H](CCC(N)=O)NC(=O)[C@H](CCC(=O)O)NC(=O)[C@H](CC(N)=O)NC(=O)[C@H](CCCCN)NC(=O)[C@H](CCC(=O)O)NC(=O)[C@H](CCC(N)=O)NC(=O)[C@H](CCC(N)=O)NC(=O)[C@H](CC(N)=O)NC(=O)[C@H](CCC(N)=O)NC(=O)[C@H](CO)NC(=O)[C@H](CCC(=O)O)NC(=O)[C@H](CCC(=O)O)NC(=O)[C@@H](NC(=O)[C@H](CC(C)C)NC(=O)[C@H](CO)NC(=O)[C@H](Cc1c[nH]cn1)NC(=O)[C@@H](NC(=O)[C@H](CC(C)C)NC(=O)[C@H](CO)NC(=O)[C@@H](NC(=O)[C@H](Cc1ccc(O)cc1)NC(C)=O)[C@@H](C)O)[C@@H](C)CC)[C@@H](C)CC)C(N)=O` [LP-40] (Ac-YTSLIHSLIEESQNQQEKNEQELLELDK(Palmitoyl)-NH2), the “Fold change in IC50” value was 0.85 fold in [1] (A21T relative to WT NL4-3); 1.87 fold in [2] (A50V relative to WT NL4-3); 1.37 fold in [3] (A71V relative to WT NL4-3); 0.07 fold in [4] (D36G relative to WT NL4-3); 1.35 fold in assay [5] (E137K relative to WT NL4-3); 6.5 fold and 6.49 fold in assay [6] (G20V relative to WT NL4-3). Also, the “Fold change in IC50” value in assay [7] (N126K relative to WT NL4-3) was 9.7 fold and 9.65 fold; in assay [8] (N42D relative to WT NL4-3), 3.46 fold; in assay [9] (N42T relative to WT NL4-3), 40.18 fold; in assay [10] (N43S relative to WT NL4-3), 11.31 fold; in assay [11] (S129N relative to WT NL4-3), 1.08 fold; in assay [12] (S35P relative to WT NL4-3), 0.69 fold. Besides, the “Fold change in IC50” value in [13] (V38A relative to WT NL4-3) was 110.56 fold; in [14] (V38T relative to WT NL4-3), 46.03 fold; in assay [15] (Y127H relative to WT NL4-3), 0.18 fold. Further, the IC50 in assay [1] was 26.8 ± 8.36 nM; in [2], 58.8 ± 13.7 nM; in assay [3], 43.2 ± 8.19 nM; in assay [4], 2.22 ± 0.57 nM; in [5], 42.6 ± 11.7 nM; in [6], 205 ± 47.2 nM. The IC50 in assay [7] came out at 304 ± 50.5 nM; in assay [8] it was 109 ± 18.4 nM; in assay [9], 1270 ± 167 nM; in [10] it was 357 ± 117 nM; in [11], 34 ± 10 nM; in [12], 21.6 ± 5.15 nM. Moreover, the IC50 in [13] stood at 3490 ± 423 nM; in assay [14], 1450 ± 237 nM; in assay [15], 5.74 ± 1.86 nM.
For Enfuvirtide, the IC50 in assay [1] worked out at 58.9 ± 9.24 nM; in assay [2], 162 ± 69.4 nM; in assay [3] it was 46.5 ± 12.5 nM; in assay [4] it was 6 ± 1.68 nM; in [5], 68.5 ± 20.1 nM; in [6], 49.1 ± 10.9 nM. The IC50 was 117 ± 37.4 nM in assay [7]; 164 ± 26.8 nM in assay [8]; 413 ± 82 nM in assay [9]; 540 ± 91.9 nM in assay [10]; 70.3 ± 19.8 nM in [11]; 138 ± 10.6 nM in assay [12]. Moreover, the results for the IC50 in assay [13], in assay [14] and in [15] were 1540 ± 22 nM, 991 ± 216 nM and 23.7 ± 2.63 nM, respectively.

These data come from publication PMC9223764, “In Vitro Selection and Characterization of HIV-1 Variants with Increased Resistance to LP-40, Enfuvirtide-Based Lipopeptide Inhibitor” (International Journal of Molecular Sciences, 2022).
